Assay type in all cases: cell-based
The test system of assay [1] is HCV 1a RLuc cells (dicistronic genotype 1a H77 replicon, RLuc reporter). Nature of the assay: microbe, parasite or virus in culture. The note with it: Hepatitis C virus, read-out: 1a. The method, boiled down: (§1)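 Replicons used: genotype 1b Con1, 1a H77, 2a JFH-1, and a 2a JFH-1 chimera with J6-strain NS5A (M31 present), all dicistronic.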
The subject of assay [2] is HCV 1b RLuc cells (dicistronic genotype 1b Con1 replicon, RLuc reporter). Put plainly: microbe, parasite or virus in culture. The note with it: Hepatitis C virus, read-out: 1b (nM). The method, boiled down: as §1
Assay [3] concerns HCV 2a JFH-1 Rluc cells (dicistronic genotype 2a JFH-1 replicon, RLuc reporter). Nature of the assay: microbe, parasite or virus in culture. The note with it: Hepatitis C virus, read-out: 2a JFH. The method, boiled down:
as §1

Assay [4] relates to HCV 2b Rluc cells (NS5A chimeric genotype 2a JFH-1 replicon with genotype 2b MD2b-1 NS5A gene, M31 present). Put plainly: microbe, parasite or virus in culture. The note with it: Hepatitis C virus, read-out: 2b. The procedure, abridged:
(§2)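 Replicon cells stably carrying the listed RLuc-encoding dicistronic replicons were seeded and treated with DMSO serial dilutions of compound (10 mM stocks) diluted into culture medium. After 72 h, cells were lysed and Renilla luciferase activity measured. EC50 was derived by non-linear regression.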

For assay [5], the system named is HCV 3a RLuc cells (NS5A chimeric genotype 1b Con1 replicon with consensus genotype 3a NS5A gene). Nature of the assay: microbe, parasite or virus in culture. The note with it: Hepatitis C virus. The method, boiled down:
as §2

In assay [6] the test system is HCV 4a Rluc cells (NS5A chimeric genotype 1b Con1 replicon with genotype 4a NS5A gene). Nature of the assay: microbe, parasite or virus in culture. The note with it: Hepatitis C virus, read-out: 4a. The procedure, abridged: as §2
In assay [7] the test system is Q30R in genotype 1a NS5A, 1a Rluc replicon transfected into Huh-7 cured-51 cells. Put plainly: HCV replicon assay, resistance mutant 1a Q30R. The note with it: Hepatitis C virus, Huh-7, read-out: 1a Q30R. The method, boiled down:
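Q30R introduced into genotype 1a H77 RLuc replicon by site-directed mutagenesis; replicon RNA transfected into Huh-7 cured-51 cells.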

The test system of assay [8] is HCV 2a Rluc cells (NS5A chimeric genotype 2a JFH-1 replicon with genotype 2a J6 strain NS5A gene, M31 present). Nature of the assay: HCV replicon reporter assay, genotype 2a J6 (M31 present). The note with it: Hepatitis C virus, read-out: 2a J6. The method, boiled down:
as §1

Where [9] appears, read: read-out: 3a, genotype 3a replicon.
The mark [10] stands for this setting: genotype 2a JFH-1 RLuc replicon.
The mark [11] stands for this setting: read-out: 3a, genotype 3a NS5A chimeric replicon.

Read-outs that look alike come from different tables or passages of the source.

On to `COC[C@@H]1C[C@@H](c2nc3ccc4cc(-c5ccc6c(ccc7nc([C@@H]8CCCN8C(=O)[C@@H](NC(=O)OC)C(C)C)[nH]c76)c5)ccc4c3[nH]2)N(C(=O)[C@@H](NC(=O)OC)C(C)C)C1` [Example 397], for which the EC50 in assay [1] (genotype 1a replicon) was 0.001 to 0.999 nM; in assay [2], 0.017 nM; in assay [3] (genotype 2a JFH-1 replicon), 0.001 to 0.999 nM; in assay [4], 0.001 to 0.999 nM; in assay [5] (setting [9]), 0.001 to 0.99 nM; in assay [6], 0.001 to 0.99 nM. Besides, the EC50 in assay [7] and in assay [8] was 0.001 to 0.999 nM throughout.
Regarding `CCC(=O)N[C@@H](C(=O)N1[C@@H]2CC[C@@H](C2)[C@H]1c1nc2ccc3cc(-c4ccc5c(ccc6nc([C@@H]7CCCN7C(=O)[C@@H](NC(=O)OC)C(C)C)[nH]c65)c4)ccc3c2[nH]1)c1ccccc1` [Example 418], the EC50 in assay [1] (genotype 1a replicon) was 0.001 to 0.999 nM; in assay [2] it was 0.035 nM; in assay [3] (genotype 2a JFH-1 replicon), 0.001 to 0.999 nM; in assay [4] it was 0.001 to 0.999 nM; in assay [5] (setting [9]), 0.001 to 0.99 nM; in assay [6] it was 0.001 to 0.99 nM. The EC50 lay within 1 to 44 nM in assay [7] and 0.001 to 0.999 nM in assay [8].
As for `COC[C@H]1C[C@@H](c2nc3ccc4cc(-c5ccc6c(ccc7nc([C@@H]8C[C@H]9C[C@H]9N8C(=O)[C@@H](NC(=O)OC)C(C)C)[nH]c76)c5)ccc4c3[nH]2)N(C(=O)[C@H](NC(=O)C2CC2)c2ccccc2)C1` [Example 502], the EC50 in assay [1] (genotype 1a H77 RLuc replicon) was 0.001 to 0.999 nM; in assay [2], 0.016 nM; in assay [3] (setting [10]), 0.001 to 0.999 nM; in assay [4] it was 0.001 to 0.999 nM; in assay [5] (setting [11]) it was 0.001 to 0.99 nM; in assay [6] it was 0.001 to 0.99 nM. Moreover, the EC50 in assay [7] and in assay [8] was 0.001 to 0.999 nM throughout.
Take `COC[C@H]1C[C@@H](c2ncc(-c3ccc(-c4ccc(-c5cnc([C@@H]6CCCN6C(=O)[C@@H](NC(=O)OC)C(C)C)[nH]5)cc4)cc3)[nH]2)N(C(=O)[C@H](NC(=O)OC)c2ccccc2)C1` [Example 500]: the EC50 in assay [1] (genotype 1a H77 RLuc replicon) is 0.001 to 0.999 nM; in assay [2], 0.028 nM; in assay [3] (setting [10]) it was 0.001 to 0.999 nM; in assay [4] it was 0.001 to 0.999 nM; in assay [5] (setting [11]) it was 0.001 to 0.99 nM; in assay [6] it was 0.001 to 0.99 nM. For the same molecule, the EC50 is 0.001 to 0.999 nM in assay [7] and 1 to 44 nM in assay [8].
For the molecule `COC[C@H]1C[C@@H](c2nc3ccc4cc(-c5ccc6c(ccc7nc([C@@H]8C[C@H](COC)CN8C(=O)[C@H](NC(=O)OC)c8ccccc8)[nH]c76)c5)ccc4c3[nH]2)N(C(=O)[C@@H](NC(=O)OC)C(C)C)C1` [Example 437], the EC50 in assay [1] (genotype 1a replicon) is 0.001 to 0.999 nM; in assay [2], 0.048 nM; in assay [3] (genotype 2a JFH-1 replicon), 0.001 to 0.999 nM; in assay [4], 0.001 to 0.999 nM; in assay [5] (setting [9]), 0.001 to 0.99 nM; in assay [6], 0.001 to 0.99 nM. The EC50 in assay [7] and in assay [8] was 0.001 to 0.999 nM in each case.
Take `COC[C@H]1C[C@@H](c2nc3ccc4cc(-c5ccc6c(ccc7nc([C@@H]8CCCN8C(=O)[C@@H](NC(=O)OC)C(C)C)[nH]c76)c5)ccc4c3[nH]2)N(C(=O)[C@@H](NC(=O)OC)C(C)C)C1` [Example 398]: the EC50 was 0.001 to 0.999 nM in assay [1] (genotype 1a replicon); 0.023 nM in assay [2]; 0.001 to 0.999 nM in assay [3] (genotype 2a JFH-1 replicon); 0.001 to 0.999 nM in assay [4]; 0.001 to 0.99 nM in assay [5] (setting [9]); 0.001 to 0.99 nM in assay [6]. The EC50 in assay [7] and in assay [8] was 0.001 to 0.999 nM each time.
For `COC(=O)N[C@H](C(=O)N1C[C@@H](C)C[C@H]1c1nc2ccc3cc4c(cc3c2[nH]1)OCc1cc(-c2cnc([C@@H]3C[C@H](C)CN3C(=O)[C@H](NC(=O)OC)c3ccccc3)[nH]2)ccc1-4)C(C)C` [Example 573], the EC50 in assay [1] (genotype 1a H77 RLuc replicon) was 0.001 to 0.999 nM; in assay [2], 0.03 nM; in assay [3] (setting [10]), 0.001 to 0.999 nM; in assay [4], 0.001 to 0.999 nM; in assay [5] (setting [11]), 0.001 to 0.99 nM; in assay [6], 0.001 to 0.99 nM. Further, the EC50 in assay [7] and in assay [8] was 0.001 to 0.999 nM in each case.
Turning to `COC[C@H]1CC(c2nc3ccc4cc(-c5ccc(-c6cnc([C@@H]7CCCN7C(=O)[C@H](NC(=O)C7CC7)c7ccccc7)[nH]6)cc5)ccc4c3[nH]2)N(C(=O)[C@@H](NC(=O)OC)C(C)C)C1` (stereo in doubt) [Example 425], the EC50 in assay [1] (genotype 1a replicon) was 0.001 to 0.999 nM; in assay [2] it was 0.034 nM; in assay [3] (genotype 2a JFH-1 replicon) it was 0.001 to 0.999 nM; in assay [4], 0.001 to 0.999 nM; in assay [5] (setting [9]) it was 0.001 to 0.99 nM; in assay [6], 0.001 to 0.99 nM. For the same molecule, the EC50 in assay [7] and in assay [8] was 0.001 to 0.999 nM throughout.
Consider `COC(=O)N[C@H](C(=O)N1[C@@H]2C[C@@H]2C[C@H]1c1nc2ccc3cc4c(cc3c2[nH]1)OCc1cc(-c2cnc([C@@H]3CCCN3C(=O)[C@H](NC(=O)OC)c3ccccc3)[nH]2)ccc1-4)C(C)C` [Example 536], for which the EC50 was 0.001 to 0.999 nM in assay [1] (genotype 1a H77 RLuc replicon); 0.013 nM in assay [2]; 0.001 to 0.999 nM in assay [3] (setting [10]); 0.001 to 0.999 nM in assay [4]; 0.001 to 0.99 nM in assay [5] (setting [11]); 0.001 to 0.99 nM in assay [6]. Moreover, the EC50 in assay [7] and in assay [8] was 0.001 to 0.999 nM throughout.
In the case of `COC[C@H]1C[C@@H](c2nc3ccc4cc(-c5ccc(-c6cnc([C@@H]7CCCN7C(=O)[C@@H](NC(=O)OC)C(C)C)[nH]6)cc5)ccc4c3[nH]2)N(C(=O)[C@H](NC(=O)C2CC2)c2ccccc2)C1` [Example 475], the EC50 in assay [1] (genotype 1a replicon) is 0.001 to 0.999 nM; in assay [2], 0.019 nM; in assay [3] (genotype 2a JFH-1 replicon), 0.001 to 0.999 nM; in assay [4], 0.001 to 0.999 nM; in assay [5] (setting [9]), 0.001 to 0.99 nM; in assay [6] it was 0.001 to 0.99 nM. The EC50 in assay [7] and in assay [8] was 0.001 to 0.999 nM each time.
`COC[C@H]1C[C@@H](c2nc3ccc4cc(-c5ccc6c(ccc7nc([C@@H]8C[C@H](C)CN8C(=O)[C@@H](NC(=O)OC)C(C)C)[nH]c76)c5)ccc4c3[nH]2)N(C(=O)[C@H](N)c2ccccc2)C1` [Example 545]: the EC50 in assay [1] (genotype 1a H77 RLuc replicon) was 0.001 to 0.999 nM; in assay [2], 0.075 nM; in assay [3] (setting [10]), 0.001 to 0.999 nM; in assay [4], 0.001 to 0.999 nM; in assay [5] (setting [11]), 0.001 to 0.99 nM; in assay [6], 0.001 to 0.99 nM. Besides, the EC50 in assay [7] and in assay [8] was 0.001 to 0.999 nM each time.

The values above are taken from US10344019B2 (priority 2010, dated 2019).
